Measurements taken from the NIST ThermoML archive (doi:10.1021/je900743e).
± gives the expanded uncertainty stated by the source.

How the values were obtained:
[1] = Crystal; visual observation
[2] = wn = mass fraction of the nth substance listed; settings: 101 kPa, Liquid; for viscosity: Capillary tube (Ostwald / Ubbelohde) method; for mass density: Pycnometric method

Structure (SMILES): [Br-].[Br-].c1cc[n+](CCCCC[n+]2ccccc2)cc1 [1,1'-(pentane-1,5-diyl)-bis(pyridinium) dibromide]
- Normal melting temperature [1]: 198.00 ± 2.9 °C

Structure (SMILES): CCO [ethanol] + O
- viscosity ([2]; 293.15 K, w1 = 0.1): 1.538 ± 0.034 mPa·s
- viscosity ([2]; 293.15 K, w1 = 0.2): 2.183 ± 0.05 mPa·s
- viscosity ([2]; 293.15 K, w1 = 0.3): 2.701 ± 0.064 mPa·s
- viscosity ([2]; 293.15 K, w1 = 0.4): 2.91 ± 0.071 mPa·s
- viscosity ([2]; 293.15 K, w1 = 0.5): 2.87 ± 0.074 mPa·s
- mass density ([2]; 293.15 K, w1 = 0.1): 981.8 ± 0.6 kg/m3
- mass density ([2]; 293.15 K, w1 = 0.2): 968.2 ± 0.8 kg/m3
- mass density ([2]; 293.15 K, w1 = 0.3): 953.6 ± 1.1 kg/m3
- mass density ([2]; 293.15 K, w1 = 0.4): 935.5 ± 1.4 kg/m3
- mass density ([2]; 293.15 K, w1 = 0.5): 913.9 ± 1.8 kg/m3
- viscosity ([2]; 303.15 K, w1 = 0.1): 1.16 ± 0.026 mPa·s
- viscosity ([2]; 303.15 K, w1 = 0.2): 1.553 ± 0.035 mPa·s
- viscosity ([2]; 303.15 K, w1 = 0.3): 1.87 ± 0.044 mPa·s
- viscosity ([2]; 303.15 K, w1 = 0.4): 2.02 ± 0.05 mPa·s
- viscosity ([2]; 303.15 K, w1 = 0.5): 2.022 ± 0.052 mPa·s
- mass density ([2]; 303.15 K, w1 = 0.1): 979 ± 0.6 kg/m3
- mass density ([2]; 303.15 K, w1 = 0.2): 964.1 ± 0.9 kg/m3
- mass density ([2]; 303.15 K, w1 = 0.3): 947.4 ± 1.1 kg/m3
- mass density ([2]; 303.15 K, w1 = 0.4): 927.2 ± 1.4 kg/m3
- mass density ([2]; 303.15 K, w1 = 0.5): 905.6 ± 1.8 kg/m3
- viscosity ([2]; 313.15 K, w1 = 0.1): 0.9068 ± 0.02 mPa·s
- viscosity ([2]; 313.15 K, w1 = 0.2): 1.16 ± 0.027 mPa·s
- viscosity ([2]; 313.15 K, w1 = 0.3): 1.368 ± 0.032 mPa·s
- viscosity ([2]; 313.15 K, w1 = 0.4): 1.482 ± 0.037 mPa·s
- viscosity ([2]; 313.15 K, w1 = 0.5): 1.499 ± 0.039 mPa·s
- mass density ([2]; 313.15 K, w1 = 0.1): 974.6 ± 0.6 kg/m3
- mass density ([2]; 313.15 K, w1 = 0.2): 958.7 ± 0.9 kg/m3
- mass density ([2]; 313.15 K, w1 = 0.3): 940.3 ± 1.1 kg/m3
- mass density ([2]; 313.15 K, w1 = 0.4): 919.8 ± 1.4 kg/m3
- mass density ([2]; 313.15 K, w1 = 0.5): 897.6 ± 1.7 kg/m3
